{
  "source": "patent US6355799B1",
  "about": "“Substituted benzene compounds, process for their preparation, and herbicidal and defoliant compositions containing them” (ISK Americas Incorporated, priority 1997, dated 2002)",
  "type_in_all_cases": "in vivo",
  "key": {"[1]": {"system": "redroot pigweed (Amaranthus retroflexus, AMARE)", "experiment": "Pre-emerge test, greenhouse herbicide activity screening", "conditions": "pre-emerge, rated 14 days after application, 0 = no damage, 100 = complete death", "in_short": "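Compounds in acetone were track-sprayed at 15-1000 g ai/ha (187 l/ha) on sandy loam pots: pre-emerge one day after seeding, post-emerge at 2-3 leaf stage with 0.25% v/v non-ionic surfactant. Phytotoxicity was rated 14 days later on a 0 (no damage) to 100 (complete death) scale.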"}, "[2]": {"system": "barnyardgrass (Echinochloa crus-galli, ECHCG)", "experiment": "Pre-emerge test, greenhouse herbicide activity screening", "conditions": "pre-emerge, rated 14 days after application, 0 = no damage, 100 = complete death", "in_short": "(§1)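 Compounds in acetone were track-sprayed at 187 l/ha, 15–1000 g ai/ha, onto sandy loam pots. Pre-emerge seeds were sown one day before spraying, with surface watering afterwards. Post-emerge plants were at the 2–3 leaf stage and sprayed with 0.25% v/v non-ionic surfactant. Injury was rated 0–100 at 14 days.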"}, "[3]": {"system": "green foxtail (Setaria viridis, SETVI)", "experiment": "Pre-emerge test, greenhouse herbicide activity screening", "conditions": "pre-emerge, rated 14 days after application, 0 = no damage, 100 = complete death", "in_short": "as §1"}, "[4]": {"system": "ivyleaf morningglory (Ipomoea hederacea, IPOHE)", "experiment": "Pre-emerge test, greenhouse herbicide activity screening", "conditions": "pre-emerge, rated 14 days after application, 0 = no damage, 100 = complete death", "in_short": "as §1"}, "[5]": {"system": "johnsongrass (Sorghum halepense, SORHA)", "experiment": "Pre-emerge test, greenhouse herbicide activity screening", "conditions": "pre-emerge, rated 14 days after application, 0 = no damage, 100 = complete death", "in_short": "as §1"}, "[6]": {"system": "lambsquarters (Chenopodium album, CHEAL)", "experiment": "Pre-emerge test, greenhouse herbicide activity screening", "conditions": "pre-emerge, rated 14 days after application, 0 = no damage, 100 = complete death", "in_short": "as §1"}, "[7]": {"system": "large crabgrass (Digitaria sanguinalis, DIGSA)", "experiment": "Pre-emerge test, greenhouse herbicide activity screening", "conditions": "pre-emerge, rated 14 days after application, 0 = no damage, 100 = complete death", "in_short": "as §1"}, "[8]": {"system": "sicklepod (Cassia obtusifolia, CASOB)", "experiment": "Pre-emerge test, greenhouse herbicide activity screening", "conditions": "pre-emerge, rated 14 days after application, 0 = no damage, 100 = complete death", "in_short": "as §1"}, "[9]": {"system": "velvetleaf (Abutilon theophrasti, ABUTH)", "experiment": "Pre-emerge test, greenhouse herbicide activity screening", "conditions": "pre-emerge, rated 14 days after application, 0 = no damage, 100 = complete death", "in_short": "as §1"}, "[10]": {"system": "field corn (Zea mays L., var. Dekalb 535, CORN)", "experiment": "Pre-emerge test, crop safety", "conditions": "pre-emerge, rated 14 days after application, 0 = no damage, 100 = complete death", "in_short": "(§2)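 Fourteen days after spraying, crop and weed injury was graded visually from 0, no effect, to 100, every plant dead. Test substances were dissolved in acetone and applied at 15–1000 g ai/ha with a flat-fan nozzle. Application was either pre-emergence, one day after sowing, or post-emergence at the 2–3 leaf stage.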"}, "[11]": {"system": "upland rice (Oryza sp., var. Tebonnet, RICE)", "experiment": "Pre-emerge test, crop safety", "conditions": "pre-emerge, rated 14 days after application, 0 = no damage, 100 = complete death", "in_short": "as §2"}, "[12]": {"system": "barnyardgrass (Echinochloa crus-galli, ECHCG)", "experiment": "Post-emerge test, greenhouse herbicide activity screening", "conditions": "phytotoxicity rating 0-100 (0 no damage, 100 complete death), 14 days after application", "in_short": "(§3)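 Compounds in acetone were track-sprayed at 15–1000 g ai/ha: pre-emergence onto soil sown the previous day, then top-watered to incorporate and later bottom-watered; post-emergence onto 2–3 leaf plants with 0.25% v/v surfactant, bottom-watered only. Ratings on a 0–100 phytotoxicity scale were taken at day 14.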"}, "[13]": {"system": "common ragweed (Ambrosia artemisizfolia L., AMBEL)", "experiment": "Post-emerge test, greenhouse herbicide activity screening", "conditions": "250 g ai/ha; phytotoxicity rating 0-100 (0 no damage, 100 complete death), 14 days after application", "in_short": "as §3"}, "[14]": {"system": "green foxtail (Setaria viridis, SETVI)", "experiment": "Post-emerge test, greenhouse herbicide activity screening", "conditions": "phytotoxicity rating 0-100 (0 no damage, 100 complete death), 14 days after application", "in_short": "as §3"}, "[15]": {"system": "ivyleaf morningglory (Ipomoea hederacea, IPOHE)", "experiment": "Post-emerge test, greenhouse herbicide activity screening", "conditions": "phytotoxicity rating 0-100 (0 no damage, 100 complete death), 14 days after application", "in_short": "as §3"}, "[16]": {"system": "johnsongrass (Sorghum halepense, SORHA)", "experiment": "Post-emerge test, greenhouse herbicide activity screening", "conditions": "phytotoxicity rating 0-100 (0 no damage, 100 complete death), 14 days after application", "in_short": "as §3"}, "[17]": {"system": "lambsquarters (Chenopodium album, CHEAL)", "experiment": "Post-emerge test, greenhouse herbicide activity screening", "conditions": "phytotoxicity rating 0-100 (0 no damage, 100 complete death), 14 days after application", "in_short": "as §3"}, "[18]": {"system": "large crabgrass (Digitaria sanguinalis, DIGSA)", "experiment": "Post-emerge test, greenhouse herbicide activity screening", "conditions": "phytotoxicity rating 0-100 (0 no damage, 100 complete death), 14 days after application", "in_short": "as §3"}, "[19]": {"system": "redroot pigweed (Amaranthus retroflexus, AMARE)", "experiment": "Post-emerge test, greenhouse herbicide activity screening", "conditions": "phytotoxicity rating 0-100 (0 no damage, 100 complete death), 14 days after application", "in_short": "as §3"}, "[20]": {"system": "sicklepod (Cassia obtusifolia, CASOB)", "experiment": "Post-emerge test, greenhouse herbicide activity screening", "conditions": "phytotoxicity rating 0-100 (0 no damage, 100 complete death), 14 days after application", "in_short": "as §3"}, "[21]": {"system": "velvetleaf (Abutilon theophrasti, ABUTH)", "experiment": "Post-emerge test, greenhouse herbicide activity screening", "conditions": "phytotoxicity rating 0-100 (0 no damage, 100 complete death), 14 days after application", "in_short": "as §3"}, "[22]": {"system": "field corn (Zea mays L., var. Dekalb 535, CORN)", "experiment": "Post-emerge test, crop safety", "conditions": "phytotoxicity rating 0-100 (0 no damage, 100 complete death), 14 days after application", "in_short": "as §1"}, "[23]": {"system": "upland rice (Oryza sp., var. Tebonnet, RICE)", "experiment": "Post-emerge test, crop safety", "conditions": "phytotoxicity rating 0-100 (0 no damage, 100 complete death), 14 days after application", "in_short": "as §1"}},
  "data": [
    {"smiles": "COc1c(Cl)cc(F)c(-n2c(=O)cc(C(F)(F)F)n(C)c2=O)c1NC(=O)C1CCCCC1", "note": "[2-19]", "values": [
      {"measurement": "Pre-emerge Herbicidal Activity AMARE (phytotoxicity rating, scale 0-100)", "setting": "[1]; 63 g ai/ha", "result": 80},
      {"measurement": "Pre-emerge Herbicidal Activity AMARE (phytotoxicity rating, scale 0-100)", "setting": "[1]; 250 g ai/ha", "result": 100},
      {"measurement": "Pre-emerge Herbicidal Activity ECHCG (phytotoxicity rating, scale 0-100)", "setting": "[2]; 63 g ai/ha", "result": 0},
      {"measurement": "Pre-emerge Herbicidal Activity ECHCG (phytotoxicity rating, scale 0-100)", "setting": "[2]; 250 g ai/ha", "result": 50},
      {"measurement": "Pre-emerge Herbicidal Activity SETVI (phytotoxicity rating, scale 0-100)", "setting": "[3]; 63 g ai/ha", "result": 20},
      {"measurement": "Pre-emerge Herbicidal Activity SETVI (phytotoxicity rating, scale 0-100)", "setting": "[3]; 250 g ai/ha", "result": 100},
      {"measurement": "Pre-emerge Herbicidal Activity IPOHE (phytotoxicity rating, scale 0-100)", "setting": "[4]; 63 g ai/ha", "result": 10},
      {"measurement": "Pre-emerge Herbicidal Activity IPOHE (phytotoxicity rating, scale 0-100)", "setting": "[4]; 250 g ai/ha", "result": 100},
      {"measurement": "Pre-emerge Herbicidal Activity SORHA (phytotoxicity rating, scale 0-100)", "setting": "[5]; 63 g ai/ha", "result": 0},
      {"measurement": "Pre-emerge Herbicidal Activity SORHA (phytotoxicity rating, scale 0-100)", "setting": "[5]; 250 g ai/ha", "result": 60},
      {"measurement": "Pre-emerge Herbicidal Activity CHEAL (phytotoxicity rating, scale 0-100)", "setting": "[6]; 63 g ai/ha", "result": 95},
      {"measurement": "Pre-emerge Herbicidal Activity CHEAL (phytotoxicity rating, scale 0-100)", "setting": "[6]; 250 g ai/ha", "result": 100},
      {"measurement": "Pre-emerge Herbicidal Activity DIGSA (phytotoxicity rating, scale 0-100)", "setting": "[7]; 63 g ai/ha", "result": 40},
      {"measurement": "Pre-emerge Herbicidal Activity DIGSA (phytotoxicity rating, scale 0-100)", "setting": "[7]; 250 g ai/ha", "result": 100},
      {"measurement": "Pre-emerge Herbicidal Activity CASOB (phytotoxicity rating, scale 0-100)", "setting": "[8]; 63 g ai/ha", "result": 0},
      {"measurement": "Pre-emerge Herbicidal Activity CASOB (phytotoxicity rating, scale 0-100)", "setting": "[8]; 250 g ai/ha", "result": 10},
      {"measurement": "Pre-emerge Herbicidal Activity ABUTH (phytotoxicity rating, scale 0-100)", "setting": "[9]; 63 g ai/ha", "result": 90},
      {"measurement": "Pre-emerge Herbicidal Activity ABUTH (phytotoxicity rating, scale 0-100)", "setting": "[9]; 250 g ai/ha", "result": 100},
      {"measurement": "Pre-emerge crop damage CORN (phytotoxicity rating, scale 0-100)", "setting": "[10]; 63 g ai/ha", "result": 5},
      {"measurement": "Pre-emerge crop damage CORN (phytotoxicity rating, scale 0-100)", "setting": "[10]; 250 g ai/ha", "result": 40},
      {"measurement": "Pre-emerge crop damage RICE (phytotoxicity rating, scale 0-100)", "setting": "[11]; 63 g ai/ha", "result": 10},
      {"measurement": "Pre-emerge crop damage RICE (phytotoxicity rating, scale 0-100)", "setting": "[11]; 250 g ai/ha", "result": 60},
      {"measurement": "Post-emerge Herbicidal Activity ECHCG", "setting": "[12]; 63 g ai/ha", "result": 0},
      {"measurement": "Post-emerge Herbicidal Activity ECHCG", "setting": "[12]; 250 g ai/ha", "result": 0},
      {"measurement": "Post-emerge Herbicidal Activity AMBEL", "setting": "[13]", "result": 30},
      {"measurement": "Post-emerge Herbicidal Activity SETVI", "setting": "[14]; 63 g ai/ha", "result": 0},
      {"measurement": "Post-emerge Herbicidal Activity SETVI", "setting": "[14]; 250 g ai/ha", "result": 30},
      {"measurement": "Post-emerge Herbicidal Activity IPOHE", "setting": "[15]; 63 g ai/ha", "result": 70},
      {"measurement": "Post-emerge Herbicidal Activity IPOHE", "setting": "[15]; 250 g ai/ha", "result": 100},
      {"measurement": "Post-emerge Herbicidal Activity SORHA", "setting": "[16]; 63 g ai/ha", "result": 0},
      {"measurement": "Post-emerge Herbicidal Activity SORHA", "setting": "[16]; 250 g ai/ha", "result": 0},
      {"measurement": "Post-emerge Herbicidal Activity CHEAL", "setting": "[17]; 63 g ai/ha", "result": 50},
      {"measurement": "Post-emerge Herbicidal Activity CHEAL", "setting": "[17]; 250 g ai/ha", "result": 50},
      {"measurement": "Post-emerge Herbicidal Activity DIGSA", "setting": "[18]; 63 g ai/ha", "result": 0},
      {"measurement": "Post-emerge Herbicidal Activity DIGSA", "setting": "[18]; 250 g ai/ha", "result": 0},
      {"measurement": "Post-emerge Herbicidal Activity AMARE", "setting": "[19]; 63 g ai/ha", "result": 40},
      {"measurement": "Post-emerge Herbicidal Activity AMARE", "setting": "[19]; 250 g ai/ha", "result": 75},
      {"measurement": "Post-emerge Herbicidal Activity CASOB", "setting": "[20]; 63 g ai/ha", "result": 0},
      {"measurement": "Post-emerge Herbicidal Activity CASOB", "setting": "[20]; 250 g ai/ha", "result": 10},
      {"measurement": "Post-emerge Herbicidal Activity ABUTH", "setting": "[21]; 63 g ai/ha", "result": 90},
      {"measurement": "Post-emerge Herbicidal Activity ABUTH", "setting": "[21]; 250 g ai/ha", "result": 100},
      {"measurement": "Post-emerge Herbicidal Activity CORN (crop damage)", "setting": "[22]; 63 g ai/ha", "result": 0},
      {"measurement": "Post-emerge Herbicidal Activity CORN (crop damage)", "setting": "[22]; 250 g ai/ha", "result": 0},
      {"measurement": "Post-emerge Herbicidal Activity RICE (crop damage)", "setting": "[23]; 63 g ai/ha", "result": 0},
      {"measurement": "Post-emerge Herbicidal Activity RICE (crop damage)", "setting": "[23]; 250 g ai/ha", "result": 20}
    ]}
  ]
}
